Source: ChEMBL document CHEMBL1201862, “PubChem BioAssay data set” (2004)
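The compound was tested at five concentrations on cells cultured in 96-well plates, with a 48-hour exposure period. GI50: concentration for 50% inhibition of growth.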 Activity calls are given as the source filed them. Rule as the data show it: active = GI50 up to about 1.1 µM and inactive = higher.

Experiments:
Assay in all cases: growth of human tumour cells (NCI), 48 h
COLO 205 = tested on: COLO 205
DLD-1 = tested on: DLD-1
HCC 2998 = tested on: HCC 2998
HL-60 = tested on: HL-60
HOP-92 = tested on: HOP-92
K562 = tested on: K562
M14 = tested on: M14
Malme-3M = tested on: Malme-3M
NCI-H226 = tested on: NCI-H226
NCI-H23 = tested on: NCI-H23
OVCAR-3 = tested on: OVCAR-3
SF-539 = tested on: SF-539
SK-MEL-2 = tested on: SK-MEL-2
SK-MEL-5 = tested on: SK-MEL-5
SN12C = tested on: SN12C
SW-620 = tested on: SW-620
UO-31 = tested on: UO-31
BT-549 = tested on: BT-549
MCF7 = tested on: MCF7
MDA-MB-231 = tested on: MDA-MB-231

Compound	GI50 (COLO 205)	GI50 (DLD-1)	GI50 (HCC 2998)	GI50 (HL-60)	GI50 (HOP-92)	GI50 (K562)	GI50 (M14)	GI50 (Malme-3M)	GI50 (NCI-H226)	GI50 (NCI-H23)	GI50 (OVCAR-3)	GI50 (SF-539)	GI50 (SK-MEL-2)	GI50 (SK-MEL-5)	GI50 (SN12C)	GI50 (SW-620)	GI50 (UO-31)	GI50 (BT-549)	GI50 (MCF7)	GI50 (MDA-MB-231)
O=S(=O)(/C=C/CS(=O)(=O)c1ccccc1)c1ccccc1	36.1 µM (inactive)	23.6 µM (inactive)	23.9 µM (inactive)	15.1 µM (inactive)	45 µM (inactive)	25.3 µM (inactive)	23 µM (inactive)	29.6 µM (inactive)	19.3 µM (inactive)	19.2 µM (inactive)	26.5 µM (inactive)	20.3 µM (inactive)	6.47 µM (inactive)	40.8 µM (inactive)	25.3 µM (inactive)	20.9 µM (inactive)	42.5 µM (inactive)			
CC1CSC(=S)N1C(=O)N1C(=S)SCC1C (stereo not drawn)	16.3 µM (inactive)	19.3 µM (inactive)	36.6 µM (inactive)	12.1 µM (inactive)	27.7 µM (inactive)	20.1 µM (inactive)	21.9 µM (inactive)	17.1 µM (inactive)	26.5 µM (inactive)	20.3 µM (inactive)	27.4 µM (inactive)	19.3 µM (inactive)	21.3 µM (inactive)	17 µM (inactive)	20.5 µM (inactive)	20.4 µM (inactive)	22.8 µM (inactive)	24.7 µM (inactive)	21.2 µM (inactive)	22.2 µM (inactive)
CC1=CC(=O)c2cccc(O)c2C1=O	2.09 µM (inactive)	1.66 µM (inactive)	8.57 µM (inactive)	0.935 µM (active)	1.85 µM (inactive)	3.02 µM (inactive)	1.81 µM (inactive)	1.62 µM (inactive)	7.28 µM (inactive)	2.96 µM (inactive)	1.53 µM (inactive)	5.7 µM (inactive)	2.09 µM (inactive)	1.79 µM (inactive)	2.32 µM (inactive)	1.99 µM (inactive)	1.79 µM (inactive)	1.75 µM (inactive)	1.99 µM (inactive)	1.76 µM (inactive)
O=C1O[C@@H](c2ccccc2)C[C@@H]1CN1CCOCC1	> 100 µM (inactive)	> 100 µM (inactive)	> 100 µM (inactive)	> 100 µM (inactive)	> 100 µM (inactive)	> 100 µM (inactive)	> 100 µM (inactive)	> 100 µM (inactive)	> 100 µM (inactive)	26.3 µM (inactive)	> 100 µM (inactive)	> 100 µM (inactive)	> 100 µM (inactive)	> 100 µM (inactive)	> 100 µM (inactive)	> 100 µM (inactive)	> 100 µM (inactive)			
C=C(c1ccccc1)[C@@]1(O)CC[C@@H]1N(CC#N)Cc1ccccc1	16.3 µM (inactive)	19.6 µM (inactive)	21.2 µM (inactive)	32 µM (inactive)	18.7 µM (inactive)	42.1 µM (inactive)	17.3 µM (inactive)	3.23 µM (inactive)	35.2 µM (inactive)	23.1 µM (inactive)	12.3 µM (inactive)	29.2 µM (inactive)	20.9 µM (inactive)	15.9 µM (inactive)	20.1 µM (inactive)	18.2 µM (inactive)	26.7 µM (inactive)	19.9 µM (inactive)		14 µM (inactive)
O=[N+]([O-])CCc1cccc([N+](=O)[O-])c1	> 100 µM (inactive)	> 100 µM (inactive)	> 100 µM (inactive)	> 100 µM (inactive)	> 100 µM (inactive)	> 100 µM (inactive)	> 100 µM (inactive)	> 100 µM (inactive)	> 100 µM (inactive)	> 100 µM (inactive)	> 100 µM (inactive)	> 100 µM (inactive)	> 100 µM (inactive)	> 100 µM (inactive)	> 100 µM (inactive)	9.44 µM (inactive)	> 100 µM (inactive)			
COc1cc([C@@H]2c3cc4c(cc3[C@@H](OC3OC5CO[C@@H](c6cccs6)OC5C(O)C3O)[C@H]3COC(=O)[C@H]23)OCO4)cc(OC)c1O (stereo partly drawn)	0.527 µM (active)	2.18 µM (inactive)	0.671 µM (active)	0.0521 µM (active)	0.132 µM (active)	0.724 µM (active)	0.594 µM (active)	0.656 µM (active)	0.32 µM (active)	0.406 µM (active)	1.73 µM (inactive)	0.205 µM (active)	1.09 µM (active)	0.548 µM (active)	0.313 µM (active)	0.24 µM (active)	4.35 µM (inactive)	0.586 µM (active)	0.038 µM (active)	1.12 µM (active)
COc1cc2cc3c4c(cc(OC)c(OC)c4c2cc1OC)CCN3C(=O)CCC(=O)NCCCN(C)C	32.6 µM (inactive)	16.9 µM (inactive)	> 100 µM (inactive)	21.7 µM (inactive)	10 µM (inactive)	33.6 µM (inactive)	17.6 µM (inactive)	64.7 µM (inactive)	66.8 µM (inactive)	> 100 µM (inactive)	> 100 µM (inactive)	18.8 µM (inactive)	20.1 µM (inactive)	14.7 µM (inactive)	> 100 µM (inactive)	54 µM (inactive)	> 100 µM (inactive)			
C#CCNC(=O)NC(CCCNC(=O)OCc1ccccc1)C(=O)OCc1ccccc1 (stereo not drawn)	35.7 µM (inactive)	> 100 µM (inactive)	> 100 µM (inactive)	25.4 µM (inactive)	19.3 µM (inactive)	> 100 µM (inactive)	24.5 µM (inactive)	51.9 µM (inactive)	> 100 µM (inactive)	> 100 µM (inactive)	> 100 µM (inactive)	50.2 µM (inactive)	33.7 µM (inactive)	84.1 µM (inactive)	> 100 µM (inactive)	> 100 µM (inactive)	> 100 µM (inactive)			
Cc1ccc2c(c1)CN(C(=O)CCC(=O)OCc1ccccc1)c1ccc(C)cc1CN2C(=O)CCC(=O)OCc1ccccc1	> 100 µM (inactive)	> 100 µM (inactive)	> 100 µM (inactive)	> 100 µM (inactive)	82.2 µM (inactive)	> 100 µM (inactive)	> 100 µM (inactive)	> 100 µM (inactive)	> 100 µM (inactive)	> 100 µM (inactive)	> 100 µM (inactive)	88.3 µM (inactive)	> 100 µM (inactive)	> 100 µM (inactive)	> 100 µM (inactive)	> 100 µM (inactive)		> 100 µM (inactive)	9.25 µM (inactive)	> 100 µM (inactive)
